As usually defined, the IC50 is the midpoint of a concentration-inhibition curve.

The structures appear in SMILES notation. Where two headings read alike, the source gives them in different places. Where only a bound is given, the exact number is not on record here.

Here are results for 26 compounds from patent US12215093B2, “Bicyclic carboxamides and methods of use thereof” (Tempest Therapeutics, Inc., priority 2018, dated 2025).

The target of assay [1] is T1, EP2 (Homo sapiens, UniProt P43116). The experiment in a line: cell-based.
T1 sequence (P43116 whole entry): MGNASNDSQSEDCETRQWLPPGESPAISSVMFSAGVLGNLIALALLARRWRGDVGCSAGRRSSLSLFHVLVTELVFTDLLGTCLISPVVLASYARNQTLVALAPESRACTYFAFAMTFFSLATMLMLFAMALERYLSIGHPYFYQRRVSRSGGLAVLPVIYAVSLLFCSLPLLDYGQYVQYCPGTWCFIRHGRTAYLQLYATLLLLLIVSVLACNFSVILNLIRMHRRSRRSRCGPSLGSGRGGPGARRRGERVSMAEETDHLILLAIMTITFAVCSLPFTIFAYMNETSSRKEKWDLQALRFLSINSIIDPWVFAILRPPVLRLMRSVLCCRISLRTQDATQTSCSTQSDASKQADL
The next assay has as its target T2, EP4 (Homo sapiens, UniProt P35408).
T2 construct: host or cells: stably transfected HEK293 cells co-expressing a promiscuous G protein and a clytin variant
Kind of assay: Functional calcium flux assay, EP4. It counts as cell-based. The note with it: stably transfected HEK293 cells; PGE2 10 nM; read-out: EP4 Ca2+-flux assay IC50. Background: A change in cytosolic calcium serves as a functional read-out for many receptors and channels.

The target of assay [2] is T1, EP2.

T2 sequence (P35408 whole entry): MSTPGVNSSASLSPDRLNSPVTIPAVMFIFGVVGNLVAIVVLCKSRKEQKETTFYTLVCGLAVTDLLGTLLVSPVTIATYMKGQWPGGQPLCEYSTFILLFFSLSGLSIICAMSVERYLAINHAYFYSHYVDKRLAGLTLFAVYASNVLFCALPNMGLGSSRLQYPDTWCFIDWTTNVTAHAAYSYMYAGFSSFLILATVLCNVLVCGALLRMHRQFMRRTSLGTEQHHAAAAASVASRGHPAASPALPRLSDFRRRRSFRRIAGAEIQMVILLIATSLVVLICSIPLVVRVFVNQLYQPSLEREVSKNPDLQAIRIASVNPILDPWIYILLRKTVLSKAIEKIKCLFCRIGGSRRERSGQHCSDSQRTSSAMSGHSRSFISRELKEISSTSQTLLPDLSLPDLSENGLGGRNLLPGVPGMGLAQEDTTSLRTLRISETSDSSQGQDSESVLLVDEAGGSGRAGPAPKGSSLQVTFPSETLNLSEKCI

Take `COc1cccc(-c2ccc(Cn3ccc4c(F)ccc(C(=O)NC5CC6(CC(CC(=O)O)C6)C5)c43)cc2)n1` (stereo not shown) [Example 150, (Ra)-2-(6-(4-fluoro-1-(4-(6-methoxypyridin-2-yl)benzyl)-1H-indole-7-carboxamido)spiro[3.3]heptan-2-yl)acetic acid]: the results for the IC50 against EP2 [1] and on EP4 were 61 nM and less than 1 nM, respectively.

In the case of `O=C(NC1CC2(C1)CC(C(=O)O)C2)c1ccc(F)c2ccn(Cc3ccc(N4CCOCC4)cc3)c12` (racemic) [Example 31, (racemic)-6-(4-Fluoro-1-(4-morpholinobenzyl)-1H-indole-7-carboxamido)spiro[3.3]heptane-2-carboxylic acid], the values for the IC50 on EP2 [1] and at EP4 were 44 nM and less than 1 nM, respectively.

`[2H]C([2H])([2H])C([2H])(c1ccc(-c2ccccc2)cc1)n1ncc2c(Cl)ccc(C(=O)NC3CC4(C3)CC(C(=O)O)C4)c21` (single isomer, unassigned) [Example 167, (Sa)-6-(1-((R) or (S)-1-([1,1′-Biphenyl]-4-yl)ethyl-1,2,2,2-d4)-4-chloro-1H-indazole-7-carboxamido)spiro[3.3]heptane-2-carboxylic acid]: the IC50 was determined as 41 nM against EP2 [1] and 3.5 nM on EP4.

Consider `CCOc1cccc(-c2ccc(Cn3ccc4c(F)ccc(C(=O)NC5CC6(C5)CC(C(=O)O)C6)c43)cc2)c1` (stereo not shown) [Example 54, (Sa)-6-(1-((3’-ethoxy-[1,1′-biphenyl]-4-yl)methyl)-4-fluoro-1H-indole-7-carboxamido)spiro[3.3]heptane-2-carboxylic acid], for which the IC50 at EP2 [1] was 43 nM; on EP4 it was less than 1 nM.

`O=C(NC1CC2(C1)CC(C(=O)O)C2)c1ccc(F)c2ccn(Cc3ccc(-c4ccccc4)c(F)c3)c12` (racemic) [Example 10, (racemic)-6-(4-Fluoro-1-((2-fluoro-[1,1′-biphenyl]-4-yl)methyl)-1H-indole-7-carboxamido)spiro[3.3]heptane-2-carboxylic acid]: the IC50 at EP2 [1] was less than 25 nM; at EP4 it was less than 1 nM.

For the compound `COc1cccc(-c2ccc(Cn3ccc4c(F)ccc(C(=O)NC5CC6(C5)CC(C(=O)O)C6)c43)cc2)c1` (racemic) [Example 14, (racemic)-6-(4-fluoro-1-((3′-methoxy-[1,1′-biphenyl]-4-yl)methyl)-1H-indole-7-carboxamido)spiro[3.3]heptane-2-carboxylic acid], the results for the IC50 on EP2 [1] and on EP4 were less than 25 nM and less than 1 nM, respectively.

Turning to `[2H]C([2H])([2H])C([2H])(c1ccc(-c2ccccc2)cc1)n1ncc2cccc(C(=O)NC3CC4(C3)CC(C(=O)O)C4)c21` (racemic) [Example 168, (Sa)-6-(1-((racemic)-1-([1,1′-Biphenyl]-4-yl)ethyl-1,2,2,2-d4)-1H-indazole-7-carboxamido)spiro[3.3]heptane-2-carboxylic acid], the 50% inhibitory concentration (IC50) stood at 28 nM against EP2 [1] and 1.2 nM on EP4.

For the compound `[2H]C([2H])([2H])C([2H])(c1ccc(-c2ccccc2)cc1)n1ncc2cccc(C(=O)NC3CC4(C3)CC(C(=O)O)C4)c21` (single isomer, unassigned) [Example 169, (Sa)-6-(1-((R) or (S)-1-([1,1′-Biphenyl]-4-yl)ethyl-1,2,2,2-d4)-1H-indazole-7-carboxamido)spiro[3.3]heptane-2-carboxylic acid], the concentration for half-maximal inhibition (IC50) on EP2 [1] was determined as 63 nM; on EP4, 1.5 nM.

As for `CCOc1cccc(-c2ccc(Cn3ncc4c(Cl)ccc(C(=O)NC5CC6(C5)CC(C(=O)O)C6)c43)cc2)n1` (stereo not shown) [Example 83, (Sa)-6-(4-Chloro-1-(4-(6-ethoxypyridin-2-yl)benzyl)-1H-indazole-7-carboxamido)spiro[3.3]heptane-2-carboxylic acid], the IC50 is less than 25 nM against EP2 [1] and less than 1 nM on EP4.

Consider `COc1cccc(-c2ccc(Cn3ccc4c(OC)ncc(C(=O)NC5CC6(C5)CC(C(=O)O)C6)c43)cc2)n1` (stereo not shown) [Example 92, (Sa)-6-(4-Methoxy-1-(4-(6-methoxypyridin-2-yl)benzyl)-1H-pyrrolo[3,2-c]pyridine-7-carboxamido)spiro[3.3]heptane-2-carboxylic acid], for which the IC50 is less than 25 nM against EP2 [1] and less than 1 nM at EP4.

For the compound `CCOc1cccc(-c2ccc(Cn3ccc4c(F)ccc(C(=O)NC5CC6(C5)CC(C(=O)O)C6)c43)cc2)n1` (stereo not shown) [Example 56, (Sa)-6-(1-(4-(6-Ethoxypyridin-2-yl)benzyl)-4-fluoro-1H-indole-7-carboxamido)spiro[3.3]heptane-2-carboxylic acid], the IC50 at EP2 [1] is 76 nM; at EP4, less than 1 nM.

`COc1cc(-c2ccc(Cn3ncc4cc(Cl)cc(C(=O)NC5CC6(C5)CC(C(=O)O)C6)c43)cc2)ccn1` (stereo not shown) [Example 135, (Sa)-6-(5-Chloro-1-(4-(2-methoxypyridin-4-yl)benzyl)-1H-indazole-7-carboxamido)spiro[3.3]heptane-2-carboxylic acid]: the IC50 at EP2 [1] was less than 25 nM; on EP4, less than 1 nM.

For the compound `COc1ccc2cc(Cn3ccc4c(F)ccc(C(=O)NC5CC6(C5)CC(C(=O)O)C6)c43)ccc2c1` (stereo not shown) [Example 38, (Sa)-6-(4-fluoro-1-((6-methoxynaphthalen-2-yl)methyl)-1H-indole-7-carboxamido)spiro[3.3]heptane-2-carboxylic acid], the IC50 on EP4 is less than 1 nM; at EP2 [2], less than 25 nM.

Regarding `O=C(NC1CC2(C1)CC(C(=O)O)C2)c1ccc(F)c2ccn(Cc3ccc(-c4ccnc(C(F)F)c4)cc3)c12` (stereo not shown) [Example 64, (Sa)-6-(1-(4-(2-(difluoromethyl)pyridin-4-yl)benzyl)-4-fluoro-1H-indole-7-carboxamido)spiro[3.3]heptane-2-carboxylic acid], the IC50 on EP4 is less than 1 nM; at EP2 [2], 48 nM.

Consider `CCOc1cc(-c2ccc(Cn3ccc4c(F)ccc(C(=O)NC5CC6(C5)CC(C(=O)O)C6)c43)cc2)ccn1` (stereo not shown) [Example 48, (Sa)-6-(1-(4-(2-ethoxypyridin-4-yl)benzyl)-4-fluoro-1H-indole-7-carboxamido)spiro[3.3]heptane-2-carboxylic acid], for which the IC50 on EP4 is less than 1 nM; on EP2 [2], 27 nM.

Turning to `COc1ccc(C(=O)NC2CC3(CC(CC(=O)O)C3)C2)c2c1cnn2Cc1ccc(-c2ccccc2)cc1` (stereo not shown) [Example 161, (Ra)-2-(6-(1-([1,1′-Biphenyl]-4-ylmethyl)-4-methoxy-1H-indazole-7-carboxamido)spiro[3.3]heptan-2-yl)acetic acid], the IC50 on EP4 was less than 1 nM; against EP2 [2] it was 63 nM.

On to `O=C(NC1CC2(C1)CC(C(=O)O)C2)c1ccc(F)c2ccn(Cc3ccc4cc(Br)ccc4c3)c12` (stereo not shown) [Example 42, (Sa)-6-(1-((6-bromonaphthalen-2-yl)methyl)-4-fluoro-1H-indole-7-carboxamido)spiro[3.3]heptane-2-carboxylic acid], for which the figures for the half-maximal inhibitory concentration (IC50) on EP4 and against EP2 [2] were less than 1 nM and 37 nM, respectively.

Take `COc1cc(-c2ccc(Cn3ccc4c(Cl)ccc(C(=O)NC5CC6(C5)CC(C(=O)O)C6)c43)cc2)ccn1` (stereo not shown) [Example 69]: the values for the IC50 at EP4 and against EP2 [2] were 2.2 nM and 33 nM, respectively.

On to `CCOc1ncc(C(=O)NC2CC3(C2)CC(C(=O)O)C3)c2c1ccn2Cc1ccc(-c2ccccc2)cc1` (stereo not shown) [Example 90, (Sa)-6-(1-([1,1′-biphenyl]-4-ylmethyl)-4-ethoxy-1H-pyrrolo[3,2-c]pyridine-7-carboxamido)spiro[3.3]heptane-2-carboxylic acid], for which the IC50 at EP4 was less than 1 nM; against EP2 [2], 57 nM.

On to `COc1cc(C(=O)NC2CC3(CC(CC(=O)O)C3)C2)c2c(cnn2Cc2ccc(-c3ccccc3)cc2)c1` (stereo not shown) [Example 164, (Ra)-2-(6-(1-([1,1′-Biphenyl]-4-ylmethyl)-5-methoxy-1H-indazole-7-carboxamido)spiro[3.3]heptan-2-yl)acetic acid], for which the figures for the IC50 at EP4 and at EP2 [2] were less than 1 nM and less than 25 nM, respectively.

Turning to `CC(c1ccc(N2C[C@H]3C[C@H]3C2)cc1)n1ncc2c(Cl)ccc(C(=O)NC3CC4(C3)CC(C(=O)O)C4)c21` (single isomer, unassigned) [Example 132, (Sa)-6-(1-((R) or (S)-1-(4-((1R, 5S)-3-azabicyclo[3.1.0]hexan-3-yl)phenyl)ethyl)-4-chloro-1H-indazole-7-carboxamido)spiro[3.3]heptane-2-carboxylic acid], the IC50 at EP4 is 2.2 nM; against EP2 [2], less than 25 nM.

In the case of `CCOc1nccc(-c2ccc(Cn3ncc4c(Cl)ccc(C(=O)NC5CC6(C5)CC(C(=O)O)C6)c43)cc2)n1` (stereo not shown) [Example 84, (Sa)-6-(4-chloro-1-(4-(2-ethoxypyrimidin-6-yl)benzyl)-1H-indazole-7-carboxamido)spiro[3.3]heptane-2-carboxylic acid], the IC50 is less than 1 nM on EP4 and less than 25 nM at EP2 [2].

With `CCOc1cc(-c2ccc(C(C)n3ncc4cccc(C(=O)NC5CC6(C5)CC(C(=O)O)C6)c43)cc2)ccn1` (racemic) [Example 115, (Sa)-6-(1-((racemic)-1-(4-(2-ethoxypyridin-4-yl)phenyl)-ethyl)-1H-indazole-7-carboxamido)spiro[3.3]heptane-2-carboxylic acid], the figures for the IC50 on EP4 and against EP2 [2] were 2.9 nM and 69 nM, respectively.

`O=C(NC1CC2(C1)CC(C(=O)O)C2)c1cc(OC(F)F)cc2cnn(Cc3ccc(-c4ccccc4)cc3)c12` (stereo not shown) [Example 163]: the IC50 at EP4 was less than 1 nM; against EP2 [2] it was 30 nM.

For the compound `COc1cc(-c2ccc(Cn3ccc4c(F)ccc(C(=O)NC5CC6(CC(CC(=O)O)C6)C5)c43)cc2)ccn1` (stereo not shown) [Example 139, (Ra)-2-(6-(4-Fluoro-1-(4-(2-methoxypyridin-4-yl)benzyl)-1H-indole-7-carboxamido)spiro[3.3]heptan-2-yl)acetic acid], the IC50 on EP4 was less than 1 nM; at EP2 [2], less than 25 nM.

In the case of `COc1ccc2cc(-c3ccc(Cn4ncc5c(Cl)ccc(C(=O)NC6CC7(CC(CC(=O)O)C7)C6)c54)cc3)ccc2n1` (stereo not shown) [Example 146, (Ra)-2-(6-(4-Chloro-1-(4-(2-methoxyquinolin-6-yl)benzyl)-1H-indazole-7-carboxamido)spiro[3.3]heptan-2-yl)acetic acid], the IC50 at EP4 was less than 1 nM; on EP2 [2] it was 82 nM.
